One series deals with PNT2. Briefly: Cytotoxicity against human PNT2 cells assessed as inhibition of cell growth incubated for 7 days by CCK-8 assay. Format: toxicity, cell-based. Conditions: pnt2, 168 h, time 7 day. Background: Tetrazolium dyes change colour on reduction, which living cells bring about.
Series [1] concerns the target T1, von Hippel-Lindau disease tumor suppressor/Histone-lysine N-methyltransferase, H3 lysine-79 specific (Homo sapiens, UniProt Q8TEK3+P40337). Briefly: PROTAC activity at VHL/DOT1L in mixed-lineage leukemia rearranged (MLL-r) human MV4-11 cells assessed as maximal induction of DOT1L degradation incubated for 24 hrs by western blot analysis relative to control. Type of series: cell-based. For orientation: In western blotting, separated proteins are transferred to a membrane and probed.

Series [2] has as its target T1, von Hippel-Lindau disease tumor suppressor/Histone-lysine N-methyltransferase, H3 lysine-79 specific. Briefly: PROTAC activity at VHL/DOT1L in mixed-lineage leukemia rearranged (MLL-r) human THP-1 cells assessed as induction of DOTIL degradation by measuring fold change in DOT1L protein level at 3 uM incubated for 1 hr by western blot analysis relative to control. Format: cell-based.

Series [3] has the same target. Briefly: PROTAC activity at VHL/DOT1L in mixed-lineage leukemia rearranged (MLL-r) human MV4-11 cells assessed as induction of DOTIL degradation by measuring fold change in DOT1L protein level at 3 uM incubated for 2 hrs by western blot analysis relative to control. Format: cell-based.
Series [4] shares this target. Briefly: PROTAC activity at VHL/DOT1L in mixed-lineage leukemia rearranged (MLL-r) human MV4-11 cells assessed as induction of DOTIL degradation by measuring fold change in DOT1L protein level at 3 uM incubated for 1 hr by western blot analysis relative to control. Type of series: cell-based.
For series [5] the target is unchanged. Briefly: PROTAC activity at VHL/DOTIL in mixed-lineage leukemia rearranged (MLL-r) human THP-1 cells assessed as induction of DOT1L degradation by measuring fold change in DOTIL protein level at 0.3 uM incubated for 24 hrs by western blot analysis relative to control. Type of series: cell-based.
The target in series [6] is Protein arginine N-methyltransferase 6 (Homo sapiens) (UniProt Q96LA8). Briefly: Inhibition of PRMT6 (unknown origin) at 10 uM by radiometric methyltransferase assay.
Protein arginine N-methyltransferase 6 (Homo sapiens), sequence (Q96LA8 whole entry, looked up): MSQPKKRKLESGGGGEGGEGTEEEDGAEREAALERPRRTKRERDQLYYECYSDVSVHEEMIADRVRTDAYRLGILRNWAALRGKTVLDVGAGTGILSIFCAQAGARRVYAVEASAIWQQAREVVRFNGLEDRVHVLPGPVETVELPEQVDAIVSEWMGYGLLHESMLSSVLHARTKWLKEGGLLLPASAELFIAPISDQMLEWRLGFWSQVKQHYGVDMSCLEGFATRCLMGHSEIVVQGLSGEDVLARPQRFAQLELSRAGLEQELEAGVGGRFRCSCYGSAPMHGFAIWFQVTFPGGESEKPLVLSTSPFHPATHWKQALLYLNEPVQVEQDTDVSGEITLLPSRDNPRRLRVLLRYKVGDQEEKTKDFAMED
The target of series [7] is T1, von Hippel-Lindau disease tumor suppressor/Histone-lysine N-methyltransferase, H3 lysine-79 specific. Briefly: PROTAC activity at VHL/DOT1L in mixed-lineage leukemia rearranged (MLL-r) human THP-1 cells assessed as maximal induction of DOT1L degradation incubated for 24 hrs by western blot analysis relative to control. Type of series: cell-based.
The subject of a further series is MOLM-13. Briefly: Effect on DOT1L mRNA expression in mixed-lineage leukemia rearranged (MLL-r) human MOLM-13 cells at 3 uM incubated for 24 hrs by RT-qPCR analysis. Format: functional, cell-based. (In qPCR the cycle at which signal appears reflects the starting amount.)
In series [8] the target is T1, von Hippel-Lindau disease tumor suppressor/Histone-lysine N-methyltransferase, H3 lysine-79 specific. Briefly: PROTAC activity at VHL/DOTIL in mixed-lineage leukemia rearranged (MLL-r) human THP-1 cells assessed as induction of DOT1L degradation by measuring reduction in DOTIL protein level at 3 uM incubated for 24 hrs by western blot analysis relative to control. Type of series: cell-based. Set-up: scale not given: the % may be the effect or the level left.

The target is the same in series [9]. Briefly: PROTAC activity at VHL/DOT1L in mixed-lineage leukemia rearranged (MLL-r) human THP-1 cells assessed as induction of DOTIL degradation by measuring fold change in DOT1L protein level at 3 uM incubated for 8 hrs by western blot analysis relative to control. Format: cell-based.
For series [10] the target is unchanged. Briefly: PROTAC activity at VHL/DOT1L in mixed-lineage leukemia rearranged (MLL-r) human MV4-11 cells assessed as induction of DOTIL degradation by measuring fold change in DOT1L protein level at 3 uM incubated for 8 hrs by western blot analysis relative to control. Type of series: cell-based.
The target in series [11] is Histone-lysine N-methyltransferase EZH2 (Homo sapiens) (UniProt Q15910). Briefly: Inhibition of human EZH2 using core histone and SAM as substrate at 10 uM by radiometric Hotspot assay.
Histone-lysine N-methyltransferase EZH2 (Homo sapiens), sequence (Q15910 whole entry, looked up): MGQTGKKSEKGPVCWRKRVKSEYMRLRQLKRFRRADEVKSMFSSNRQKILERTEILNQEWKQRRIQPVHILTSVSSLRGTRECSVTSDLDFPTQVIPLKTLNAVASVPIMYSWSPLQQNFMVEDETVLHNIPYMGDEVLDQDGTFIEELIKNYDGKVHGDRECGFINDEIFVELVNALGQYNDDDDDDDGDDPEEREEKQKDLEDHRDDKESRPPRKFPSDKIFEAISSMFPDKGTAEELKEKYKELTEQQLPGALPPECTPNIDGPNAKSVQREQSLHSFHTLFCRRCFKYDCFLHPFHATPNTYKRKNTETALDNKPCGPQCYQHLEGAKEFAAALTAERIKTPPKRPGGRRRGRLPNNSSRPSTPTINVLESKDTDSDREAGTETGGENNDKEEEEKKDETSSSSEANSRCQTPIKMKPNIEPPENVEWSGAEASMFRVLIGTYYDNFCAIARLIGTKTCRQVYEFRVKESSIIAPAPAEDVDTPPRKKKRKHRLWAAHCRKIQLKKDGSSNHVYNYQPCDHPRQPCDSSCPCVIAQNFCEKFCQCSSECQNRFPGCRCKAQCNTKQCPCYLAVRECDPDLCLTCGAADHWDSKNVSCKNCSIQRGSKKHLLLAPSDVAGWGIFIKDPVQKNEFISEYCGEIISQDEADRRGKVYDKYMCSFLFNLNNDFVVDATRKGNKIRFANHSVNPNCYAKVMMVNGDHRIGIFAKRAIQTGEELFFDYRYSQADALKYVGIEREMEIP
For series [12], the target named is T1, von Hippel-Lindau disease tumor suppressor/Histone-lysine N-methyltransferase, H3 lysine-79 specific. Briefly: PROTAC activity at VHL/DOT1L in mixed-lineage leukemia rearranged (MLL-r) human MV4-11 cells assessed as induction of DOTIL degradation by measuring fold change in H3K79Me2 level at 3 uM incubated for 48 hrs by western blot analysis relative to control. Format: cell-based.

For series [13] the target is unchanged. Briefly: PROTAC activity at VHL/DOT1L in mixed-lineage leukemia rearranged (MLL-r) human THP-1 cells assessed as induction of DOTIL degradation by measuring fold change in DOT1L protein level at 3 uM incubated for 4 hrs by western blot analysis relative to control. Type of series: cell-based.
For series [14], the target named is T2, Histone-lysine N-methyltransferase EHMT2 (Homo sapiens) (UniProt Q96KQ7).
T2 sequence (whole entry): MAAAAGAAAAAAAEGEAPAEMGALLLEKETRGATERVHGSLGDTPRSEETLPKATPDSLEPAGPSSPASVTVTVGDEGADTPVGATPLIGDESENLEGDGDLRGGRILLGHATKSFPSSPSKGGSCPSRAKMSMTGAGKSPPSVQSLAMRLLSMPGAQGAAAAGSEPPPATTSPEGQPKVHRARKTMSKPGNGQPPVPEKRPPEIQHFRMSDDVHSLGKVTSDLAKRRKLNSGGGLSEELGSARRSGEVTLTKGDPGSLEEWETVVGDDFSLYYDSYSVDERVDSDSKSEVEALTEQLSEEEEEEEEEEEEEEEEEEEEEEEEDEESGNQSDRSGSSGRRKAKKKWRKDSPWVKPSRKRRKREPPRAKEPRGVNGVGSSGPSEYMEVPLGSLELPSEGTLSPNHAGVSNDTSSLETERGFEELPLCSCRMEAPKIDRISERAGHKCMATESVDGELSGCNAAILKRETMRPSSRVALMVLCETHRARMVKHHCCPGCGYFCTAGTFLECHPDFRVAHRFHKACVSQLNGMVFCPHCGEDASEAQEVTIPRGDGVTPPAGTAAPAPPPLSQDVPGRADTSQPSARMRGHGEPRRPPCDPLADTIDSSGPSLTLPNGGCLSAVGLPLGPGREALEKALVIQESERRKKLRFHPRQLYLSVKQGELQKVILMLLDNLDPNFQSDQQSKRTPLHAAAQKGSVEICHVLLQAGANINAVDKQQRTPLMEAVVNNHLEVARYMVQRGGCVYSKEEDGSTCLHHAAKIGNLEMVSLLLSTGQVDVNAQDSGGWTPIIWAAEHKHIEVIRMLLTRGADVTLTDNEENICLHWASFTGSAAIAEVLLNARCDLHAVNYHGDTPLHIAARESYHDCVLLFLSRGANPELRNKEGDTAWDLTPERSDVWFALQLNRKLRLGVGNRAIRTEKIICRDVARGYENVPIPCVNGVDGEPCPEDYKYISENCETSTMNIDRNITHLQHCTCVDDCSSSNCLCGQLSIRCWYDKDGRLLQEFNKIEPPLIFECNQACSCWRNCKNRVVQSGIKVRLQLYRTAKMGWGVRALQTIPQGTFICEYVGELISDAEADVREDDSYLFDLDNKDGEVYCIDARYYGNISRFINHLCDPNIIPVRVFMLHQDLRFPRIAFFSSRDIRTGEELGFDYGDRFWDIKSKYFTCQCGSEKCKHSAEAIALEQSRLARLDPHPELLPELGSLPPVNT
Briefly: Inhibition of human G9a using Histone H3 and SAM as substrate at 10 uM by radiometric Hotspot assay.

Series [15] deals with T1, von Hippel-Lindau disease tumor suppressor/Histone-lysine N-methyltransferase, H3 lysine-79 specific. Briefly: PROTAC activity against VHL/DOT1L in mixed-lineage leukemia rearranged (MLL-r) human THP-1 cells assessed as induction of DOT1L degradation at 3 uM preincubated with NAE inhibitor, MLN4924 for 1 hr followed by incubation with compound for 8 hrs by western blot analysis. Type of series: cell-based.

Active and inactive are the calls of the source. No cut-off for these calls is given here.

T1 sequence (P40337 whole entry, looked up): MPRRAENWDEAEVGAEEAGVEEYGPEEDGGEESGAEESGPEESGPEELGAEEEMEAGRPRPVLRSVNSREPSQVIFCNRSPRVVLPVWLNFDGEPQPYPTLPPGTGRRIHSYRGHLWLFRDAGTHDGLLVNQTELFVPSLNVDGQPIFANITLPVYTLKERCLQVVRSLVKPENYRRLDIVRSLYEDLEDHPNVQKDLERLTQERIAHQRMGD
T1 sequence (Q8TEK3 whole entry, looked up): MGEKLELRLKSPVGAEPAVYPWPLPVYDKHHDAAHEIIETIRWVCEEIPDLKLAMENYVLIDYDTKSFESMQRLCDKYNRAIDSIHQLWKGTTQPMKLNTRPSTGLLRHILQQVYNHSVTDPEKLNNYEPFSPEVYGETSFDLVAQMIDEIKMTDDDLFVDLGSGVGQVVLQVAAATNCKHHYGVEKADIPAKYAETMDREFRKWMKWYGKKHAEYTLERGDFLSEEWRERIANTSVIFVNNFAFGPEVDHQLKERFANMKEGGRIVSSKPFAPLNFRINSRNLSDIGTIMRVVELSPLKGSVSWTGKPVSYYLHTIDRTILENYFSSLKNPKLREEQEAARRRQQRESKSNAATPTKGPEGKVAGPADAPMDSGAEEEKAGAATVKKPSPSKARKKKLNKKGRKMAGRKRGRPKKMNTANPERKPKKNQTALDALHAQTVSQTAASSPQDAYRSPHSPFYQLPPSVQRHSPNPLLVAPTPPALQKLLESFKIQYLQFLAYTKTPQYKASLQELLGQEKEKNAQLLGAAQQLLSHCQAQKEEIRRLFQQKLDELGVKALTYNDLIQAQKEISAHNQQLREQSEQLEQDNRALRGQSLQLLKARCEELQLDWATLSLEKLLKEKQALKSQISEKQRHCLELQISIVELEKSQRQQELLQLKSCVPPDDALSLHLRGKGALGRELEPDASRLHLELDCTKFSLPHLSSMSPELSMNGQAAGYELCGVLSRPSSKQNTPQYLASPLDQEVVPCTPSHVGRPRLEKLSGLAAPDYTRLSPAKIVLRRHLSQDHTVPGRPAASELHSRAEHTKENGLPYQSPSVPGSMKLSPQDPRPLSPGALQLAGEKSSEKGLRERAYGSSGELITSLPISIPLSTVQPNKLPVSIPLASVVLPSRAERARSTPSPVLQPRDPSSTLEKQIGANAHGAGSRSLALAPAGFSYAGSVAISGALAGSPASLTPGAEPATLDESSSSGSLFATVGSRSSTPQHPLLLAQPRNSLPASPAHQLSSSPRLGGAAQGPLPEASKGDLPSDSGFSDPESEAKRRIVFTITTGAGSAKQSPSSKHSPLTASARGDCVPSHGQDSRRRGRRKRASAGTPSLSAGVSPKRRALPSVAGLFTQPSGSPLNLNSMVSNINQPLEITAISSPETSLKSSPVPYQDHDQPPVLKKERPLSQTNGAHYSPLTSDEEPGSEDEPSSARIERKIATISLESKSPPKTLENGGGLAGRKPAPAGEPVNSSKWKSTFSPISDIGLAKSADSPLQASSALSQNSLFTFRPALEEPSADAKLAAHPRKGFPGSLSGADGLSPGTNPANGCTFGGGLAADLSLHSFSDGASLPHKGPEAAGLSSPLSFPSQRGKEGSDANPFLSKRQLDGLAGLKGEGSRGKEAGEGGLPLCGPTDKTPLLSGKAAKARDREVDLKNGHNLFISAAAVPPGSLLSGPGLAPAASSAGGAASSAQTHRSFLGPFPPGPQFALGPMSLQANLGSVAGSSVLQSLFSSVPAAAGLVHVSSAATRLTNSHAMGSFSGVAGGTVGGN

For `Cc1ncsc1-c1ccc([C@H](CC(=O)NCCCCCCNC(=O)COc2nc(N)nc(Nc3cc(S(N)(=O)=O)ccc3N[C@@H](c3cccc4c3OC(F)(F)O4)c3ncccc3Cl)n2)NC(=O)[C@@H]2C[C@@H](O)CN2C(=O)[C@@H](NC(=O)C2(F)CC2)C(C)(C)C)cc1`, the Activity entry in the series on PNT2 is “Non-toxic”; in series [1] it was 93%; in series [7], 69%; in [8], 77%. The fold change (FC) came to 0.33 in series [2]; 0.86 in series [3]; 1.26 in [4]; 0.08 in [5]; 0.29 in series [9]; 0.15 in series [10]. Besides, the fold change (FC) in [12] was 0.12; in [13] it was 0.4. Moreover, the inhibition result in series [6], in series [11] and in series [14] was “inactive” throughout. For the same compound, the outcome (with MOLM-13; in series [15]) was inactive.

The values are drawn from ChEMBL document CHEMBL6182889, “Discovery of the first-in-class DOT1L PROTAC degrader” (Eur J Med Chem, 2025).
